From the supplement of paper PMC7017272
± gives the standard deviation of the averaged measurements.

How the values were obtained:
Conditions in all cases: treatment time: 3 days
[1] = tested on: UT-SCC-24A; assay: drug sensitivity score (DSS); higher = more sensitive
Description: (§1)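 HNSCC cell lines (500 cells/well, 384-well) were cultured on plastic, on top of (2D) or embedded (3D) in Matrigel or human leiomyoma matrix Myogel (500 ug/mL; Myogel 3D mixed with rat collagen I). Cells were treated for 3 days with 5 ten-fold concentrations of each drug, and viability was read by CellTiter-Glo. Suffixes _1/_2/_3 on drug names are replicates.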

[2] = tested on: UT-SCC-106A; assay: maximal % inhibition of viability relative to DMSO; higher = stronger effect
How it was run: (§2)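 Viability was read with CellTiter-Glo 2.0 luminescence and scaled against vehicle (0.1% DMSO) and cell-killing control wells. The assay used HPV-negative HNSCC cell lines at 500 cells/well in 384-well plates, grown on plastic, on Matrigel or Myogel coatings (500 µg/mL), or embedded in Matrigel or Myogel plus rat collagen I, and treated for 3 days at five 10-fold concentrations. IC50, maximal inhibition and drug sensitivity score were derived from percent-inhibition dose–response curves fitted in the FIMM pipeline.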

[3] = tested on: UT-SCC-44; assay: as above
How it was run: as §2

[4] = tested on: UT-SCC-73; assay: as above
How it was run: as §2

[5] = tested on: UT-SCC-24A; assay: maximal % inhibition of viability relative to DMSO; higher = stronger effect
Description: as §1, with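 “CellTiter-Glo. Viability was normalised to DMSO (0% inhibition) and 100 uM benzethonium chloride (100% inhibition) controls and fitted with the FIMM DSRT pipeline to give IC50 (nM), maximal % inhibition and the drug sensitivity score (DSS).” for “CellTiter-Glo.”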

[6] = tested on: UT-SCC-106A; assay: drug sensitivity score (DSS); higher = more sensitive; extreme values may be limits of the assay
How it was run: as §2

[7] = tested on: UT-SCC-14; assay: as above
How it was run: as §2

[8] = tested on: UT-SCC-24B; assay: as above
How it was run: as §2

[9] = tested on: UT-SCC-28; assay: as above
How it was run: as §2

[10] = tested on: UT-SCC-40; assay: as above
How it was run: as §2

[11] = tested on: UT-SCC-42A; assay: as above
How it was run: as §2

[12] = tested on: UT-SCC-42B; assay: as above
How it was run: as §2

[13] = tested on: UT-SCC-44; assay: as above
How it was run: as §2

[14] = tested on: UT-SCC-73; assay: as above
How it was run: as §2

[15] = tested on: UT-SCC-81; assay: as above
How it was run: as §2

[16] = tested on: UT-SCC-8; assay: as above
How it was run: as §2

[17] = culture condition: embedded in Matrigel
[18] = culture condition: embedded in Myogel + collagen I
[19] = culture condition: on top of Matrigel
[20] = culture condition: on top of Myogel
[21] = culture condition: plastic 2D (no matrix)

## CO[C@H]1C[C@@H]2CC[C@@H](C)[C@@](O)(O2)C(=O)C(=O)N2CCCC[C@H]2C(=O)O[C@H]([C@H](C)C[C@@H]2CC[C@@H](OC(=O)C(C)(CO)CO)[C@H](OC)C2)CC(=O)[C@H](C)/C=C(\C)[C@@H](O)[C@@H](OC)C(=O)[C@H](C)C[C@H](C)/C=C/C=C/C=C/1C [Temsirolimus]
[1]; [17]
  drug sensitivity score: 10.2 ± 11 DSS
[1]; [18]
  drug sensitivity score: 9.67 ± 2.8 DSS
[1]; [19]
  drug sensitivity score: 4.9 ± 1.3 DSS
[1]; [20]
  drug sensitivity score: 5.03 ± 1.2 DSS
[1]; [21]
  drug sensitivity score: 6.07 ± 0.67 DSS
[2]; [17]
  maximal % inhibition of viability: 36.2 ± 2.6%
[2]; [18]
  maximal % inhibition of viability: 33.9 ± 5.5%
[2]; [19]
  maximal % inhibition of viability: 36.4 ± 0.4%
[2]; [20]
  maximal % inhibition of viability: 25.1 ± 1.4%
[2]; [21]
  maximal % inhibition of viability: 39.8 ± 5%
[3]; [17]
  maximal % inhibition of viability: 29.4 ± 1.9%
[3]; [18]
  maximal % inhibition of viability: 38.9 ± 6.9%
[3]; [19]
  maximal % inhibition of viability: 38.4 ± 1.5%
[3]; [20]
  maximal % inhibition of viability: 38.6 ± 4%
[3]; [21]
  maximal % inhibition of viability: 35 ± 1.3%
[4]; [17]
  maximal % inhibition of viability: 32 ± 6.7%
[4]; [18]
  maximal % inhibition of viability: 38.7 ± 21%
[4]; [19]
  maximal % inhibition of viability: 29.7 ± 3.1%
[4]; [20]
  maximal % inhibition of viability: 34.5 ± 1.6%
[4]; [21]
  maximal % inhibition of viability: 24 ± 6.6%
[5]; [17]
  maximal % inhibition of viability: 46.8 ± 44%
[5]; [18]
  maximal % inhibition of viability: 40.8 ± 6.7%
[5]; [19]
  maximal % inhibition of viability: 33.3 ± 6.1%
[5]; [20]
  maximal % inhibition of viability: 28.7 ± 1.9%
[5]; [21]
  maximal % inhibition of viability: 33.8 ± 2.7%
[6]; [17]
  drug sensitivity score: 6.03 ± 1.3 DSS
[6]; [18]
  drug sensitivity score: 5.33 ± 1.3 DSS
[6]; [19]
  drug sensitivity score: 5.93 ± 1 DSS
[6]; [20]
  drug sensitivity score: 3.33 ± 0.21 DSS
[6]; [21]
  drug sensitivity score: 7.6 ± 0.85 DSS
[7]; [17]
  drug sensitivity score: 15.4 ± 0.23 DSS
[7]; [18]
  drug sensitivity score: 14 ± 1.9 DSS
[7]; [19]
  drug sensitivity score: 13.3 ± 0.66 DSS
[7]; [20]
  drug sensitivity score: 13.7 ± 1.3 DSS
[7]; [21]
  drug sensitivity score: 13.1 ± 2.3 DSS
[8]; [17]
  drug sensitivity score: 5.07 ± 3.1 DSS
[8]; [18]
  drug sensitivity score: 11 ± 2.6 DSS
[8]; [19]
  drug sensitivity score: 4.3 ± 1.7 DSS
[8]; [20]
  drug sensitivity score: 6.37 ± 1.4 DSS
[8]; [21]
  drug sensitivity score: 4.77 ± 1.2 DSS
[9]; [17]
  drug sensitivity score: 4.9 ± 2.9 DSS
[9]; [18]
  drug sensitivity score: 4.77 ± 3.2 DSS
[9]; [19]
  drug sensitivity score: 8.37 ± 2.5 DSS
[9]; [21]
  drug sensitivity score: 8.8 ± 1.3 DSS
[10]; [17]
  drug sensitivity score: 6.03 ± 2 DSS
[10]; [18]
  drug sensitivity score: 6.8 ± 2.6 DSS
[10]; [19]
  drug sensitivity score: 4.17 ± 1.6 DSS
[10]; [20]
  drug sensitivity score: 4.53 ± 1.1 DSS
[10]; [21]
  drug sensitivity score: 3.6 ± 1 DSS
[11]; [17]
  drug sensitivity score: 4.67 ± 1.3 DSS
[11]; [18]
  drug sensitivity score: 5.23 ± 3.3 DSS
[11]; [19]
  drug sensitivity score: 5.87 ± 1.4 DSS
[11]; [20]
  drug sensitivity score: 6.4 ± 0.35 DSS
[11]; [21]
  drug sensitivity score: 4.5 ± 1.1 DSS
[12]; [17]
  drug sensitivity score: 4 ± 6 DSS
[12]; [19]
  drug sensitivity score: 0 DSS
[12]; [20]
  drug sensitivity score: 0 DSS
[12]; [21]
  drug sensitivity score: 0.933 ± 0.84 DSS
[13]; [17]
  drug sensitivity score: 5.33 ± 4 DSS
[13]; [18]
  drug sensitivity score: 9.3 ± 3.5 DSS
[13]; [19]
  drug sensitivity score: 9.13 ± 1 DSS
[13]; [20]
  drug sensitivity score: 8.97 ± 1.4 DSS
[13]; [21]
  drug sensitivity score: 7.9 ± 0.78 DSS
[14]; [17]
  drug sensitivity score: 9.13 ± 6.3 DSS
[14]; [18]
  drug sensitivity score: 8.27 ± 5.5 DSS
[14]; [19]
  drug sensitivity score: 7.23 ± 0.64 DSS
[14]; [20]
  drug sensitivity score: 7.1 ± 2.2 DSS
[14]; [21]
  drug sensitivity score: 4.53 ± 1.6 DSS
[15]; [17]
  drug sensitivity score: 14.9 ± 3.1 DSS
[15]; [18]
  drug sensitivity score: 15 ± 3.8 DSS
[15]; [19]
  drug sensitivity score: 10.2 ± 0.74 DSS
[15]; [20]
  drug sensitivity score: 14.7 ± 1.5 DSS
[15]; [21]
  drug sensitivity score: 12.1 ± 2.3 DSS
[16]; [17]
  drug sensitivity score: 9.4 ± 0.36 DSS
[16]; [18]
  drug sensitivity score: 4.53 ± 0.57 DSS
[16]; [19]
  drug sensitivity score: 9.17 ± 1.2 DSS
[16]; [20]
  drug sensitivity score: 11.4 ± 1.6 DSS
[16]; [21]
  drug sensitivity score: 10.4 ± 1.1 DSS

## CC(=O)Nc1cccc(-n2c(=O)n(C3CC3)c(=O)c3c(Nc4ccc(I)cc4F)n(C)c(=O)c(C)c32)c1 [Trametinib]
[1]; [17]
  drug sensitivity score: 20.2 ± 1.9 DSS
[1]; [18]
  drug sensitivity score: 8.77 ± 2.7 DSS
[1]; [19]
  drug sensitivity score: 18.9 ± 1.5 DSS
[1]; [20]
  drug sensitivity score: 3.8 ± 1.6 DSS
[1]; [21]
  drug sensitivity score: 18.2 ± 2.1 DSS
[2]; [17]
  maximal % inhibition of viability: 51.5 ± 3.2%
[2]; [18]
  maximal % inhibition of viability: 15.1 ± 2.8%
[2]; [19]
  maximal % inhibition of viability: 61.8 ± 3.4%
[2]; [20]
  maximal % inhibition of viability: 23.2 ± 8.1%
[2]; [21]
  maximal % inhibition of viability: 63.5 ± 1.5%
[3]; [17]
  maximal % inhibition of viability: 66.8 ± 1.4%
[3]; [18]
  maximal % inhibition of viability: 23 ± 2.4%
[3]; [19]
  maximal % inhibition of viability: 46.1 ± 8.3%
[3]; [20]
  maximal % inhibition of viability: 28.4 ± 11%
[3]; [21]
  maximal % inhibition of viability: 41.1 ± 9%
[4]; [17]
  maximal % inhibition of viability: 81.2 ± 1.7%
[4]; [18]
  maximal % inhibition of viability: 62.8 ± 12%
[4]; [19]
  maximal % inhibition of viability: 76.9 ± 0.9%
[4]; [20]
  maximal % inhibition of viability: 63.3 ± 3.6%
[4]; [21]
  maximal % inhibition of viability: 70.53 ± 0.25%
[5]; [17]
  maximal % inhibition of viability: 74.7 ± 4%
[5]; [18]
  maximal % inhibition of viability: 48.6 ± 6.4%
[5]; [19]
  maximal % inhibition of viability: 69.5 ± 5.2%
[5]; [20]
  maximal % inhibition of viability: 33.1 ± 9.5%
[5]; [21]
  maximal % inhibition of viability: 62.4 ± 10%
[6]; [17]
  drug sensitivity score: 15.3 ± 2.4 DSS
[6]; [18]
  drug sensitivity score: 0.6 ± 0.6 DSS
[6]; [19]
  drug sensitivity score: 16.9 ± 1.2 DSS
[6]; [20]
  drug sensitivity score: 3.1 ± 2.4 DSS
[6]; [21]
  drug sensitivity score: 17.3 ± 0.72 DSS
[7]; [17]
  drug sensitivity score: 9.3 ± 2.1 DSS
[7]; [18]
  drug sensitivity score: 6.63 ± 3.8 DSS
[7]; [19]
  drug sensitivity score: 6.5 ± 3.7 DSS
[7]; [20]
  drug sensitivity score: 3.43 ± 1.8 DSS
[7]; [21]
  drug sensitivity score: 2.23 ± 1.9 DSS
[8]; [17]
  drug sensitivity score: 11 ± 1 DSS
[8]; [18]
  drug sensitivity score: 10.3 ± 2.3 DSS
[8]; [19]
  drug sensitivity score: 10.1 ± 1.1 DSS
[8]; [20]
  drug sensitivity score: 6.67 ± 1.4 DSS
[8]; [21]
  drug sensitivity score: 13.8 ± 0.95 DSS
[9]; [17]
  drug sensitivity score: 5.9 ± 1.1 DSS
[9]; [18]
  drug sensitivity score: 3.83 ± 3.9 DSS
[9]; [19]
  drug sensitivity score: 7.33 ± 3.5 DSS
[9]; [21]
  drug sensitivity score: 4.33 ± 1.3 DSS
[10]; [17]
  drug sensitivity score: 18.4 ± 4.2 DSS
[10]; [18]
  drug sensitivity score: 13.4 ± 2.6 DSS
[10]; [19]
  drug sensitivity score: 15.7 ± 2.8 DSS
[10]; [20]
  drug sensitivity score: 10.9 ± 1.8 DSS
[10]; [21]
  drug sensitivity score: 11.3 ± 3.5 DSS
[11]; [17]
  drug sensitivity score: 7.6 ± 5.4 DSS
[11]; [18]
  drug sensitivity score: 2.57 ± 2.8 DSS
[11]; [19]
  drug sensitivity score: 10.5 ± 0.9 DSS
[11]; [20]
  drug sensitivity score: 6.97 ± 0.8 DSS
[11]; [21]
  drug sensitivity score: 5.87 ± 3.6 DSS
[12]; [17]
  drug sensitivity score: 17.6 ± 2.3 DSS
[12]; [19]
  drug sensitivity score: 9.67 ± 0.84 DSS
[12]; [20]
  drug sensitivity score: 1.4 ± 1.4 DSS
[12]; [21]
  drug sensitivity score: 3.77 ± 2.9 DSS
[13]; [17]
  drug sensitivity score: 18.2 ± 0.7 DSS
[13]; [18]
  drug sensitivity score: 4.27 ± 1.7 DSS
[13]; [19]
  drug sensitivity score: 12.5 ± 1.8 DSS
[13]; [20]
  drug sensitivity score: 5.07 ± 3.6 DSS
[13]; [21]
  drug sensitivity score: 10.2 ± 1.6 DSS
[14]; [17]
  drug sensitivity score: 19.8 ± 3.1 DSS
[14]; [18]
  drug sensitivity score: 15.4 ± 3.3 DSS
[14]; [19]
  drug sensitivity score: 18.7 ± 3.7 DSS
[14]; [20]
  drug sensitivity score: 14.6 ± 1.9 DSS
[14]; [21]
  drug sensitivity score: 16.1 ± 3.1 DSS
[15]; [17]
  drug sensitivity score: 31.1 ± 6 DSS
[15]; [18]
  drug sensitivity score: 3.93 ± 0.58 DSS
[15]; [19]
  drug sensitivity score: 18.2 ± 2.1 DSS
[15]; [20]
  drug sensitivity score: 4.77 ± 4 DSS
[15]; [21]
  drug sensitivity score: 7.57 ± 2.1 DSS
[16]; [17]
  drug sensitivity score: 9.37 ± 3.3 DSS
[16]; [18]
  drug sensitivity score: 3.9 ± 6.8 DSS
[16]; [19]
  drug sensitivity score: 6.63 ± 5 DSS
[16]; [20]
  drug sensitivity score: 4.7 ± 4 DSS
[16]; [21]
  drug sensitivity score: 4.93 ± 4 DSS
